ChEMBL document CHEMBL1146135, “Benzimidazole inhibitors of hepatitis C virus NS5B polymerase: identification of 2-[(4-diarylmethoxy)phenyl]-benzimidazole” (Bioorg Med Chem Lett, 2006)

Key:
[1] = molecular target: T1, RNA-directed RNA polymerase (Hepacivirus hominis, UniProt O39930); experiment: Inhibitory activity against HCV 1b NS5B RNA dependent RNA polymerase; set-up: species or system Hepatitis C virus subtype 1b
[2] = molecular target: T2, DNA polymerase alpha catalytic subunit (Homo sapiens, UniProt P09884); experiment: Inhibitory activity against DNA polymerase alpha
T2 sequence (P09884 whole entry): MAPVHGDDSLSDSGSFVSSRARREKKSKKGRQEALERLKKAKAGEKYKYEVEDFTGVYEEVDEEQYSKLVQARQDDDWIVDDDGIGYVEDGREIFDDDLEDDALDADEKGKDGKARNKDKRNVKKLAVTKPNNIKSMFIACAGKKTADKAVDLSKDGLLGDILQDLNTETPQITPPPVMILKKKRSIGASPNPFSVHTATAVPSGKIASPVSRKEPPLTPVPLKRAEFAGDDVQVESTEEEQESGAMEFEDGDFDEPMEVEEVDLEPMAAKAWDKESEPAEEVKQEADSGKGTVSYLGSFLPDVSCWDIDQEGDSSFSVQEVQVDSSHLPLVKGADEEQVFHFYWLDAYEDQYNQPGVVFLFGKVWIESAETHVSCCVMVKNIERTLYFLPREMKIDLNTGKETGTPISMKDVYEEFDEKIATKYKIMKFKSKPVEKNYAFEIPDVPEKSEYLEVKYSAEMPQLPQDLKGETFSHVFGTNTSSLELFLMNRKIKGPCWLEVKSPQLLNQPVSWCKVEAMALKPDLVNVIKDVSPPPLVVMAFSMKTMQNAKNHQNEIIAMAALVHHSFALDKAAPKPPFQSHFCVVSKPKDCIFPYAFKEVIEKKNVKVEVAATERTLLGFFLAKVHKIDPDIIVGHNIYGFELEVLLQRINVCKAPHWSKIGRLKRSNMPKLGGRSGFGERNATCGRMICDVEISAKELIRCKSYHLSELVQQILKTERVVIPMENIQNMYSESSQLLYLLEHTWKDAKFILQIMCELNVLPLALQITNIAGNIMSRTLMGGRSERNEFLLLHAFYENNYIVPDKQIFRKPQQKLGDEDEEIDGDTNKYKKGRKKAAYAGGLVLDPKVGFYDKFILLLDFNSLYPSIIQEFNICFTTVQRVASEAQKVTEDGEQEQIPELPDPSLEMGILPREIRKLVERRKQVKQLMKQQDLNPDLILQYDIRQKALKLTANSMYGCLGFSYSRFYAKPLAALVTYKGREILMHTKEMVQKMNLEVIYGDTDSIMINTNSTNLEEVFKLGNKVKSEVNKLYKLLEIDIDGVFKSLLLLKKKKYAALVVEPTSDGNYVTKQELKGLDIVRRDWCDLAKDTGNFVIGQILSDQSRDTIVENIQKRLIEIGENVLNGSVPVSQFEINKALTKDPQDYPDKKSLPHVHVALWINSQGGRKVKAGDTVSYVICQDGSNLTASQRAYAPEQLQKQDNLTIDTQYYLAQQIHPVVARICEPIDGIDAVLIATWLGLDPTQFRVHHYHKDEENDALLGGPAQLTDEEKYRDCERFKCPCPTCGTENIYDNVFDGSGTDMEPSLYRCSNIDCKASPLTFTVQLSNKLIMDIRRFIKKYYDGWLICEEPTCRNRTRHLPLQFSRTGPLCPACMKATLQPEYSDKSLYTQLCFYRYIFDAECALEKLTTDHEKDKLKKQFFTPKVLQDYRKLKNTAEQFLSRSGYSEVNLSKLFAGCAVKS

DNA polymerase beta = DNA polymerase beta (Homo sapiens, UniProt P06746); experiment: Inhibitory activity against DNA polymerase beta
[3] = molecular target: T1, RNA-directed RNA polymerase; experiment: Inhibitory activity against HCV 1a NS5B RNA dependent RNA polymerase
Huh-5-2 = experiment: Cytotoxicity against Huh5-2 cells by MTT assay; assay type: functional; conditions: Homo sapiens
[4] = molecular target: RNA-directed RNA polymerase (Hepacivirus hominis) (UniProt O39930); experiment: Inhibitory activity against HCV 1b NS5B RNA dependent RNA polymerase at 10 uM; conditions: Hepatitis C virus subtype 1b
Sequence of RNA-directed RNA polymerase (Hepacivirus hominis) (O39930 1-591): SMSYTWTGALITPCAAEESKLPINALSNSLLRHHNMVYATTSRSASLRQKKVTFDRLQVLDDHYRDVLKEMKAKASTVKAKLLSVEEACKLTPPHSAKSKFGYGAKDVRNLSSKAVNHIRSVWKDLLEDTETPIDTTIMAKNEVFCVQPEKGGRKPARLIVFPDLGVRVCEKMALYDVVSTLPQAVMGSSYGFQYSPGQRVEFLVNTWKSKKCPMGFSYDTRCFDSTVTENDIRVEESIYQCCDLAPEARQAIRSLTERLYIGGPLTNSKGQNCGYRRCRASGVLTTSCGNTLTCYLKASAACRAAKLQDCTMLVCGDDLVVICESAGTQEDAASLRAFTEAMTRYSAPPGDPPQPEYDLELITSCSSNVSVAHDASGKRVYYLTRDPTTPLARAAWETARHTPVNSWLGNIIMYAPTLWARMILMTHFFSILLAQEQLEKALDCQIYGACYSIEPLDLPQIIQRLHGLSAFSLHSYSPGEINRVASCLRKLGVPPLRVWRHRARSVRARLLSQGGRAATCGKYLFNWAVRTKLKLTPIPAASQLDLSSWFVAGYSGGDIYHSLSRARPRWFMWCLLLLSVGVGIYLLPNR

T1 sequence (O39930 whole entry): as the sequence (O39930 1-591) above

## O=C(O)c1ccc2c(c1)nc(-c1ccc(OCc3ccccc3-c3ccccc3)cc1)n2C1CCCCC1
[1]
  IC50: 300 nM

## O=C(O)c1ccc(COc2ccc(-c3nc4cc(C(=O)O)ccc4n3C3CCCC3)cc2)cc1
[1]
  IC50: 6700 nM

## O=C(O)c1ccc2c(c1)nc(-c1ccc(OC(c3ccc(F)cc3)c3ccc(F)cc3)cc1)n2C1CCCCC1
[2]
  IC50: > 10000 nM
DNA polymerase beta
  IC50: > 10000 nM
[1]
  IC50: 800 nM
[3]
  IC50: 1700 nM
Huh-5-2
  CC50: 27700 nM

## COc1ccc(COc2ccc(-c3nc4cc(C(=O)O)ccc4n3C3CCCC3)cc2)cc1
[1]
  IC50: 2100 nM

## O=C(O)c1ccc2c(c1)nc(-c1ccc(OCCCc3ccccc3)cc1)n2C1CCCCC1
[1]
  IC50: 800 nM

## O=C(O)c1ccc2c(c1)nc(-c1ccc(OC(c3cccc(F)c3)c3cccc(F)c3)cc1)n2C1CCCCC1
[2]
  IC50: > 10000 nM
DNA polymerase beta
  IC50: > 10000 nM
[1]
  IC50: 760 nM
[3]
  IC50: 1900 nM
Huh-5-2
  CC50: 24400 nM

## O=C(O)c1ccc2c(c1)nc(-c1ccc(OC(c3ccccc3)c3cccnc3)cc1F)n2C1CCCCC1 (stereo not drawn)
[2]
  IC50: > 10000 nM
DNA polymerase beta
  IC50: > 10000 nM
[1]
  IC50: 270 nM
[3]
  IC50: 800 nM
Huh-5-2
  CC50: > 50000 nM

## O=C(O)c1ccc2c(c1)nc(-c1ccc(OCc3cccc(-c4ccccc4)c3)cc1)n2C1CCCCC1
[1]
  IC50: 390 nM

## O=C(O)c1ccc2c(c1)nc(-c1ccc(OC(c3ccccc3)c3ccccc3)cc1)n2C1CCCCC1
[2]
  IC50: > 10000 nM
DNA polymerase beta
  IC50: > 10000 nM
[1]
  IC50: 590 nM
[3]
  IC50: 1300 nM
Huh-5-2
  CC50: 31900 nM

## O=C(O)c1ccc2c(c1)nc(-c1ccc(OC(c3ccc(F)cc3)c3ccc(F)cc3)cc1F)n2C1CCCCC1
[2]
  IC50: > 10000 nM
DNA polymerase beta
  IC50: > 10000 nM
[1]
  IC50: 300 nM
[3]
  IC50: 840 nM
Huh-5-2
  CC50: 27200 nM

## O=C(O)c1ccc2c(c1)nc(-c1ccc(OCc3ccccc3Cl)cc1)n2C1CCCC1
[1]
  IC50: 2300 nM

## O=C(O)c1ccc2c(c1)nc(-c1ccc(OC(c3cccnc3)c3cccnc3)cc1F)n2C1CCCCC1
[2]
  IC50: > 10000 nM
DNA polymerase beta
  IC50: > 10000 nM
[1]
  IC50: 1100 nM
[3]
  IC50: 2200 nM
Huh-5-2
  CC50: > 50000 nM

## O=C(O)c1ccc2c(c1)nc(-c1ccc(OC(c3ccc(Cl)cc3)c3ccc(Cl)cc3)cc1)n2C1CCCCC1
[2]
  IC50: > 10000 nM
DNA polymerase beta
  IC50: > 10000 nM
[1]
  IC50: 930 nM
[3]
  IC50: 2400 nM
Huh-5-2
  CC50: 23700 nM

## O=C(O)c1ccc2c(c1)nc(-c1ccc(OCc3ccccc3)cc1)n2C1CCCCCC1
[1]
  IC50: 1800 nM

## Cc1ccc(C(Oc2ccc(-c3nc4cc(C(=O)O)ccc4n3C3CCCCC3)cc2)c2ccc(C)cc2)cc1
[2]
  IC50: > 10000 nM
DNA polymerase beta
  IC50: > 10000 nM
[1]
  IC50: 1200 nM
[3]
  IC50: 3100 nM
Huh-5-2
  CC50: 23500 nM

## Cc1ccc(COc2ccc(-c3nc4cc(C(=O)O)ccc4n3C3CCCC3)cc2)cc1
[1]
  IC50: 1600 nM

## O=C(O)c1ccc2c(c1)nc(-c1ccc(OCc3ccccc3)cc1)n2C1CCCC1
[1]
  IC50: 3200 nM

## O=C(O)c1ccc2c(c1)nc(-c1ccc(OCCc3ccccc3-c3ccccc3)cc1)n2C1CCCCC1
[1]
  IC50: 340 nM

## O=C(O)c1ccc2c(c1)nc(-c1ccc(OCCOc3ccccc3)cc1)n2C1CCCCC1
[1]
  IC50: 1200 nM

## O=C(O)c1ccc2c(c1)nc(-c1ccc(OCc3ccccc3)cc1)n2C1CCCCC1
[1]
  IC50: 1400 nM

## O=C(O)c1ccc2c(c1)nc(-c1ccc(OC(c3ccccc3)c3ccccc3)cc1F)n2C1CCCCC1
[2]
  IC50: > 10000 nM
DNA polymerase beta
  IC50: > 10000 nM
[1]
  IC50: 96 nM
[3]
  IC50: 800 nM
Huh-5-2
  CC50: 27300 nM

## CC(C)(C)c1ccc(COc2ccc(-c3nc4cc(C(=O)O)ccc4n3C3CCCC3)cc2)cc1
[1]
  IC50: 1500 nM

## O=C(O)c1ccc2c(c1)nc(-c1ccc(OCCCCCc3ccccc3)cc1)n2C1CCCCC1
[1]
  IC50: 1000 nM

## O=C(O)c1ccc2c(c1)nc(-c1ccc(OCc3ccncc3)cc1)n2C1CCCC1
[1]
  IC50: 4200 nM

## O=C(O)c1ccc2c(c1)nc(-c1ccc(OCc3cc(Cl)cc(Cl)c3)cc1)n2C1CCCC1
[1]
  IC50: 1700 nM

## O=C(O)c1ccc2c(c1)nc(-c1ccc(OCc3cccc(Cl)c3)cc1)n2C1CCCC1
[1]
  IC50: 1600 nM

## CN(C)C(=O)c1ccc(C(Oc2ccc(-c3nc4cc(C(=O)O)ccc4n3C3CCCCC3)c(F)c2)c2ccc(C(=O)N(C)C)cc2)cc1
[2]
  IC50: > 10000 nM
DNA polymerase beta
  IC50: > 10000 nM
[1]
  IC50: 640 nM
[3]
  IC50: 950 nM
Huh-5-2
  CC50: > 50000 nM

## NC(=O)c1ccc2c(c1)nc(-c1ccc(OCc3ccccc3)cc1)n2C1CCCC1
[4]
  inhibition: 47%

## O=C(O)c1ccc2c(c1)nc(-c1ccc(OCC(c3ccccc3)c3ccccc3)cc1)n2C1CCCCC1
[1]
  IC50: 980 nM

## O=C(O)c1ccc2c(c1)nc(-c1ccc(OCc3ccc(C(F)(F)F)cc3)cc1)n2C1CCCC1
[1]
  IC50: 1800 nM

## O=C(O)c1ccc2c(c1)nc(-c1ccc(OCc3ccc(Cl)c(Cl)c3)cc1)n2C1CCCC1
[1]
  IC50: 1300 nM

## O=C(O)c1ccc2c(c1)nc(-c1ccc(Oc3ccccc3-c3ccccc3)cc1)n2C1CCCCC1
[1]
  IC50: 580 nM

## O=C(O)c1ccc2c(c1)nc(-c1ccc(OCc3ccc(Cl)cc3)cc1)n2C1CCCC1
[1]
  IC50: 1200 nM
